Test results from ChEMBL document CHEMBL6114943, “Engineered Cyclotide Blocks Neuronal Excitotoxicity” (J Med Chem, 2025).
Calls of active or inactive are those of the source. The rule behind the calls is not given here. Where a SMILES comes first, the peptide text is derived from it. Bridges are numbered along the chain shown (N, C = ends). The star is where a group is joined. X1 = CC[N+]1=C(/C=C/C=C/C=C/C=C2/N(CCCCCC(=O)*)c3ccc(S(=O)(=O)O)cc3C2(C)C)C(C)(C)c2cc(S(=O)(=O)[O-])ccc21

Assays:
[1] = Biodistribution in C57BL/6 mouse liver at 3 nmol/g, iv measured after 90 mins post injection by fluorescence based analysis; format: ADME, organism-based; conditions: in vivo, 1.5 h
[2] = Biodistribution in C57BL/6 mouse lung at 3 nmol/g, iv measured after 90 mins post injection by fluorescence based analysis; format: ADME, organism-based; conditions: in vivo, 1.5 h
[3] = Biodistribution in C57BL/6 mouse spleen at 3 nmol/g, iv measured after 90 mins post injection by fluorescence based analysis; format: ADME, organism-based; conditions: in vivo, 1.5 h
[4] = Biodistribution in C57BL/6 mouse brain at 3 nmol/g, iv measured after 90 mins post injection by fluorescence based analysis; format: ADME, organism-based; conditions: in vivo, 1.5 h
[5] = Biodistribution in C57BL/6 mouse spleen at 3 nmol/g, iv measured after 24 hrs post injection by fluorescence based analysis; format: ADME, organism-based; conditions: in vivo
[6] = Biodistribution in C57BL/6 mouse heart at 3 nmol/g, iv measured after 90 mins post injection by fluorescence based analysis; format: ADME, organism-based; conditions: in vivo, 1.5 h
[7] = Biodistribution in C57BL/6 mouse lung at 3 nmol/g, iv measured after 24 hrs post injection by fluorescence based analysis; format: ADME, organism-based; conditions: in vivo
[8] = Biodistribution in C57BL/6 mouse kidney at 3 nmol/g, iv measured after 90 mins post injection by fluorescence based analysis; format: ADME, organism-based; conditions: in vivo, 1.5 h
[9] = system: Neuron; test: Neuroprotective activity against NMDA-induced cell death in mouse primary neuron assessed as cell viability at 1 nM preincubated with compound for 1 hrs followed by NMDA addition and measured after 1 hrs by PI staining based analysis relative to control; format: functional; conditions: time 2 hrs, read-out: Activity
[10] = system: Neuron; test: Neuroprotective activity against Amyloid beta-induced cell death in mouse primary neuron assessed as cell viability at 100 nM preincubated with compound for 1 hrs followed by Amyloid beta addition and measured after 1 hrs by PI staining based analysis; format: functional; conditions: time 2.0 hrs
[11] = Biodistribution in C57BL/6 mouse spleen at 3 nmol/g, iv measured after 90 mins post injection using Cy7 labelled compound by fluorescence based analysis; format: ADME, organism-based; conditions: in vivo, 1.5 h
[12] = Biodistribution in C57BL/6 mouse kidney at 3 nmol/g, iv measured after 90 mins post injection using Cy7 labelled compound by fluorescence based analysis; format: ADME, organism-based; conditions: in vivo, 1.5 h
[13] = system: Mus musculus; test: Neuroprotective activity against pilocarpine-induced seizure in C57BL6 mouse assessed as survival rate at 30 nmol/g, po pretreated with compound for 1 hrs followed by pilocarpine induction and measured after 2 hrs relative to control; format: functional; conditions: time 3 hrs
[14] = system: Mus musculus; test: Neuroprotective activity against pilocarpine-induced seizure in C57BL6 mouse assessed as reduction in seizure severity at 3 nmol/g, iv pretreated with compound for 1 hrs followed by pilocarpine induction and measured after 2 hrs; format: functional, organism-based; conditions: time 3.0 hrs
[15] = Biodistribution in C57BL/6 mouse heart at 3 nmol/g, iv measured after 90 mins post injection using Cy7 labelled compound by fluorescence based analysis; format: ADME, organism-based; conditions: in vivo, 1.5 h
[16] = system: Neuron; test: Neuroprotective activity against Amyloid beta-induced cell death in mouse primary neuron assessed as cell viability preincubated with compound for 1 hrs followed by Amyloid beta addition and measured after 1 hrs by PI staining based analysis relative to control; format: functional; conditions: time 2 hrs
[17] = system: Neuron; test: Cytotoxicity against mouse primary neuron upto 1 uM incubated for 24 hrs; format: toxicity, cell-based
[18] = Biodistribution in C57BL/6 mouse brain at 3 nmol/g, iv measured after 90 mins post injection using Cy7 labelled compound by fluorescence based analysis; format: ADME, organism-based; conditions: in vivo, 1.5 h
[19] = Drug uptake in mouse Primary neuron at 100 nM measured at 20 mins by inverted confocal microscopic analysis; format: ADME, cell-based; conditions: 0.1 µM
[20] = system: Neuron; test: Neuroprotective activity against NMDA-induced cell death in mouse primary neuron assessed as cell viability at 10 nM preincubated with compound for 1 hrs followed by NMDA addition and measured after 1 hrs by PI staining based analysis relative to control; format: functional; conditions: time 2 hrs, read-out: Activity
[21] = system: Neuron; test: Neuroprotective activity against Amyloid beta-induced cell death in mouse primary neuron assessed as cell viability at 0.1 nM preincubated with compound for 1 hrs followed by Amyloid beta addition and measured after 1 hrs by PI staining based analysis; format: functional
[22] = system: Mus musculus; test: Neuroprotective activity against pilocarpine-induced seizure in C57BL6 mouse assessed as reduction in seizure severity at 30 nmol/g, po pretreated with compound for 1 hrs followed by pilocarpine induction and measured after 2 hrs; format: functional, organism-based; conditions: time 3.0 hrs
[23] = system: Neuron; test: Neuroprotective activity against NMDA-induced cell death in mouse primary neuron assessed as reduction in cell viability at 100 nM preincubated with compound for 1 hrs followed by NMDA addition and measured after 1 hrs by PI staining based analysis (reference value: 60.01 +/- 4%); format: functional; conditions: time 2 hrs
[24] = Biodistribution in C57BL/6 mouse liver at 3 nmol/g, iv measured after 90 mins post injection using Cy7 labelled compound by fluorescence based analysis; format: ADME, organism-based; conditions: in vivo, 1.5 h
[25] = Toxicity in C57BL/6 mouse assessed as histological changes in spleen at 3 nmol/g, iv administered 3 consecutive days by H and E staining based analysis; format: organism-based; conditions: in vivo
[26] = Toxicity in C57BL/6 mouse assessed as histological changes in kidney at 3 nmol/g, iv administered 3 consecutive days by H and E staining based analysis; format: organism-based; conditions: in vivo
[27] = Toxicity in C57BL/6 mouse assessed as histological changes in lung at 3 nmol/g, iv administered 3 consecutive days by H and E staining based analysis; format: organism-based; conditions: in vivo
[28] = Biodistribution in C57BL/6 mouse lung at 3 nmol/g, iv measured after 90 mins post injection using Cy7 labelled compound by fluorescence based analysis; format: ADME, organism-based; conditions: in vivo, 1.5 h
[29] = Toxicity in C57BL/6 mouse assessed as histological changes in liver at 3 nmol/g, iv administered 3 consecutive days by H and E staining based analysis; format: organism-based; conditions: in vivo
[30] = system: Neuron; test: Neuroprotective activity against NMDA-induced cell death in mouse primary neuron assessed as cell viability preincubated with compound for 1 hrs followed by NMDA addition and measured after 1 hrs by PI staining based analysis relative to control; format: functional; conditions: time 2 hrs
[31] = Biodistribution in C57BL/6 mouse lung at 3 nmol/g, iv measured after 24 hrs post injection using Cy7 labelled compound by fluorescence based analysis; format: ADME, organism-based; conditions: in vivo
[32] = Toxicity in C57BL/6 mouse assessed as change in alanine transaminase level at 3 nmol/g, iv administered 3 consecutive days; format: organism-based; conditions: in vivo
[33] = system: Mus musculus; test: Neuroprotective activity against pilocarpine-induced seizure in C57BL6 mouse assessed as survival rate at 3 nmol/g, iv pretreated with compound for 1 hrs followed by pilocarpine induction and measured after 2 hrs relative to control; format: functional; conditions: time 3 hrs
[34] = Biodistribution in C57BL/6 mouse spleen at 3 nmol/g, iv measured after 24 hrs post injection using Cy7 labelled compound by fluorescence based analysis; format: ADME, organism-based; conditions: in vivo
[35] = molecular target: Disks large homolog 4 (Homo sapiens, UniProt P78352); test: Binding affinity to PSD-95 (unknown origin) assessed as binding constant (Kd) by MST analysis
Chain of Disks large homolog 4 (P78352 whole entry): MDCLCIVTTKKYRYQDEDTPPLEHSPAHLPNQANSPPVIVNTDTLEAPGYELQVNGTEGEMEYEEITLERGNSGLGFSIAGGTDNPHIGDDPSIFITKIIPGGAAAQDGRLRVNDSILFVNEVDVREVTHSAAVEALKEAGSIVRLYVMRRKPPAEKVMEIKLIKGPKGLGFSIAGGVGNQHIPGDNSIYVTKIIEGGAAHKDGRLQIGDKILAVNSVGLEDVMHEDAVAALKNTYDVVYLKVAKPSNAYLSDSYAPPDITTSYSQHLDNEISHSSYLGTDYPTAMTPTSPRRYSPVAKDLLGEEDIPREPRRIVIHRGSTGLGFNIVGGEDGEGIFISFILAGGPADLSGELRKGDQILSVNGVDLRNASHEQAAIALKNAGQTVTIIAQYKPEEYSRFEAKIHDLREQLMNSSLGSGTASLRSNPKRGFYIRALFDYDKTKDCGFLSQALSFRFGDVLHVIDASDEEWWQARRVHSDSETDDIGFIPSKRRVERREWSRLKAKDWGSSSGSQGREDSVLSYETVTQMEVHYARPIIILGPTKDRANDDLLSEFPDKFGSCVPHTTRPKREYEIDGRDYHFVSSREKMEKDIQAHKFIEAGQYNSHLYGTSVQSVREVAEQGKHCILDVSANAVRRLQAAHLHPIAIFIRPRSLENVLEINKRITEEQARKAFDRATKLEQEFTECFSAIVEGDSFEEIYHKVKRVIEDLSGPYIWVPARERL

SMILES: CC[C@H](C)[C@H](NC(=O)[C@H](CO)NC(=O)[C@H](CO)NC(=O)[C@H](CC(C)C)NC(=O)[C@H](CCCCN)NC(=O)[C@H](CCCNC(=N)N)NC(=O)[C@H](CCCNC(=N)N)NC(=O)[C@H](CCCNC(=N)N)NC(=O)[C@H](CCC(N)=O)NC(=O)[C@H](CCCNC(=N)N)NC(=O)[C@H](CCCNC(=N)N)NC(=O)[C@H](CCCCN)NC(=O)[C@H](CCCCN)NC(=O)[C@H](CCCNC(=N)N)NC(=O)CNC(=O)[C@H](Cc1ccc(O)cc1)NC(=O)CCCCCN1/C(=C/C=C/C=C/C=C/C2=[N+](CC)c3ccc(S(=O)(=O)[O-])cc3C2(C)C)C(C)(C)c2cc(S(=O)(=O)O)ccc21)C(=O)N[C@@H](CCC(=O)O)C(=O)N[C@@H](CO)C(=O)N[C@@H](CC(=O)O)C(=O)N[C@H](C(=O)O)C(C)C (X1-YGRKKRRQRRRKLSSIESDV-OH)
- Drug uptake [1]: Active
- Drug uptake [2]: Active
- Drug uptake [3]: Active
- Drug uptake [4]: Active
- Drug uptake [5]: Not_active
- Drug uptake [6]: Active
- Drug uptake [7]: Not_active
- Drug uptake [8]: Active

SMILES: CC[C@H](C)[C@@H]1NC(=O)[C@@H]2CSSC[C@@H]3NC(=O)[C@H](C(C)C)NC(=O)[C@H](CC(=O)O)NC(=O)[C@H](CO)NC(=O)[C@H](CCC(=O)O)NC(=O)[C@H]([C@@H](C)CC)NC(=O)[C@H](CO)NC(=O)[C@H](CO)NC(=O)[C@H](CC(C)C)NC(=O)[C@H](CCCCN)NC(=O)[C@@H]4CSSC[C@H](NC(=O)[C@H](CC(=O)O)NC(=O)[C@H](CO)NC(=O)[C@H](CC(=O)O)NC(=O)[C@H](CCCNC(=N)N)NC(=O)[C@H](CCCNC(=N)N)NC(=O)[C@H](CSSC[C@H](NC1=O)C(=O)N[C@@H](CCCNC(=N)N)C(=O)NCC(=O)N[C@@H](CC(N)=O)C(=O)NCC(=O)N[C@@H](Cc1ccc(O)cc1)C(=O)N4)NC(=O)[C@H](CCCNC(=N)N)NC(=O)[C@H](CCCNC(=N)N)NC(=O)[C@H](CCCNC(=N)N)NC(=O)[C@H](CCCNC(=N)N)NC(=O)[C@H](CC(C)C)NC(=O)[C@H]([C@@H](C)CC)NC(=O)[C@H](CCCNC(=N)N)NC(=O)[C@@H]1CCCN1C3=O)C(=O)N1CCC[C@H]1C(=O)NCC(=O)N[C@@H](C)C(=O)N2 (cyclo(ACICRGNGYCKLSSIESDVCPRILRRRRCRRDSDCPG); disulfide 2-20, 4-29, 10-35)
- viability at 0.001 µM [9]: 39.8%
- Activity [10]: Active
- Drug uptake [11]: Active
- Drug uptake [12]: Active
- Survival [13]: 50%
- Activity [14]: Active
- Drug uptake [15]: Active
- Activity [16]: 20.9%
- Activity [17]: Non-toxic
- Drug uptake [18]: Active
- Drug uptake [19]: Active
- viability at 0.01 µM [20]: 22.4%
- Activity [21]: Active
- Activity [22]: Not active; Slightly Lower Seizure Severity
- Activity [23]: 8.56%
- Drug uptake [24]: Active
- Activity [25]: Non-toxic
- Activity [26]: Non-toxic
- Activity [27]: Non-toxic
- Drug uptake [28]: Active
- Activity [29]: Non-toxic
- Activity [30]: 18.2%
- Drug uptake [31]: Active
- Activity [32]: Toxic
- Survival [33]: 75%
- Drug uptake [34]: Not_active
- Kd [35]: 1800 nM
